According to patent US20060160775A1, “Combination therapy” (priority 2003, published 2006):

Experiments:
tumour models = assay: Anti-tumour activity in a range of models; format: in vivo; conditions: once-daily oral administration
[1] = system: Human LoVo colorectal carcinoma tumour xenografts; assay: Human LoVo colorectal carcinoma tumour xenografts in nude mice; format: in vivo, athymic (nu/nu genotype) mouse; conditions: for Number of tumour regressions evident at day 14: groups of nine; for Mean % Inhibition of tumour growth at day 14: vs vehicle control
Procedure: Human LoVo Colorectal Carcinoma Tumour Xenografts in Nude Mice
1×10^7 LoVo tumour cells in 0.1 ml of serum free Dulbecco's Modified Eagle's Medium (DMEM) were injected subcutaneously (s.c.) into the flank of each athymic (nu/nu genotype) mouse. Tumour volumes were assessed by bilateral Vernier caliper measurement and, taking length to be the longest diameter across the tumour and width the corresponding perpendicular, calculated using the formula (length×width)×the square root of (length×width)×(π/6). […] ZD6126 was dissolved in a solution of 0.05% sodium carbonate in physiological saline and administered by intraperitoneal injection at 0.1 ml/10 g body weight. […] Inhibition of tumour growth from the start of treatment was assessed on day 14 by comparison of the differences in tumor volume between control and treated groups. In addition, the number of tumour regressions following 14 days of treatment was ascertained (tumour regression being evident if the tumour volume at day 14 was smaller than the pre-treatment value on day 0).

tumour vasculature = conditions: in vivo; cited from earlier work
[2] = AZD2171 alone, 3 mg/kg/day, days 0-14, p.o.
[3] = ZD6126 alone, 100 mg/kg/day, days 0-2, i.p.

Structure (SMILES) | Anti-tumour activity (tumour models) | Number of tumour regressions evident at day 14 [1, 2] | Mean % Inhibition of tumour growth at day 14 [1, 2] | Effect on tumour vasculature (tumour vasculature) | Number of tumour regressions evident at day 14 [1, 3] | Mean % Inhibition of tumour growth at day 14 [1, 3]
COc1cc2c(Oc3ccc4[nH]c(C)cc4c3F)ncnc2cc1OCCCN1CCCC1 [AZD2171, 4-(4-fluoro-2-methylindol-5-yloxy)-6-methoxy-7-(3-(pyrrolidin-1-yl)propoxy)quinazoline] | broad-spectrum anti-tumour activity | 0/9 | 62% (P < 0.001) | – | – | –
COc1cc2c(c(OC)c1OC)-c1ccc(OP(=O)(O)O)cc1[C@@H](NC(C)=O)CC2 [ZD6126, (5S)-5-(acetylamino)-9,10,11-trimethoxy-6,7-dihydro-5H-dibenzo[a,c]cyclohepten-3-yl dihydrogen phosphate] | – | – | – | selectively disrupts tumour vasculature leading to vessel occlusion and extensive tumour necrosis | 1/9 | 65% (P < 0.001)
